Tests used:
pyrrole-protein adducts = test: Toxicokinetic study: plasma kinetic profile of pyrrole-protein adducts; format: in vivo, Sprague Dawley rats; conditions: rats; GA 50 mg/kg + RTS 30 mg/kg vs RTS group
Description: For the toxicokinetic study, jugular vein cannulation was performed on rats on the day before drug administration. The right jugular vein was cannulated with a polyethylene tube (0.4 mm i.d. × 0.8 mm o.d., SIMS Portex, United Kingdom) for blood sampling. The rats were maintained in individual metabolic cages and fasted overnight with free access to water. […] Saline (0.2 ml) containing 25 units of heparin/mL was injected after each blood sampling for compensation of blood withdrawal. The blood samples were then centrifuged at 3,000 x g for 30 min, and plasma samples were harvested and stored at −20°C until use.
The pyrrole-protein adducts were measured according to our previously developed method ([Lin et al., 2011]; [Ruan et al., 2014]). Briefly, 50 mg liver or 100 µL serum/plasma was mixed with acetone and centrifuged at 900 x g for 10 min. […] After centrifuging at 20,000 x g for 30 min, the supernatants were collected and analyzed by LC-MS/MS according to our previously developed methods ([Ma et al., 2019]; [He et al., 2021a]; [Ma et al., 2021]). […]
Data are expressed as mean ± SD. […] Toxicokinetic parameters were calculated by noncompartmental methods using WinNonlin version 4.0 (Pharsight, Mountain View, CA, United States). […] The inhibition constant (K i ) value of GA was determined by the secondary Lineweaver-Burk plots. […]

rat CYP3A1 = test: Enzymatic kinetic study with nifedipine in rat liver microsomes; format: biochemical
Description: The mixture was pre-incubated at 37°C for 15 min. […] The supernatant was filtered through a 0.22 µm membrane filter before the LC-MS/MS analysis.
Data are expressed as mean ± SD. The Student’s t test was used for the comparison between two groups. The one-way ANOVA followed with a post hoc Bonferroni’s multiple comparison test was used for the comparison among multiple groups. Toxicokinetic parameters were calculated by noncompartmental methods using WinNonlin version 4.0 (Pharsight, Mountain View, CA, United States). The enzyme kinetic parameters were estimated from the best fit line using least-squares linear regression of the inverse substrate concentration versus the inverse velocity (Lineweaver-Burk plots), and the mean values were used to calculate the Km and Vmax. […] The statistical significance was set as ^* p < 0.05, ^** p < 0.01 or ^*** p < 0.001.

Structure (SMILES): CC1(C)[C@@H](O)CC[C@]2(C)[C@H]3C(=O)C=C4[C@@H]5C[C@@](C)(C(=O)O)CC[C@]5(C)CC[C@@]4(C)[C@]3(C)CC[C@@H]12 [GA, 18β-glycyrrhetinic acid]
- reduction of AUC0–1440min of pyrrole-protein adducts (pyrrole-protein adducts): 16.2%
- Lineweaver-Burk Slope (rat CYP3A1; GA 10 µM): 1.424±0.040
- Lineweaver-Burk Y-intercept when X=0.0 (rat CYP3A1; GA 10 µM): 0.174±0.017
- Vmax of nifedipine metabolism (rat CYP3A1; GA 10 µM): 6.326±0.079 nmol/min/mg protein
- Lineweaver-Burk Slope (rat CYP3A1; GA 25 µM): 2.671±0.041
- Lineweaver-Burk Y-intercept when X=0.0 (rat CYP3A1; GA 25 µM): 0.144±0.018
- Vmax of nifedipine metabolism (rat CYP3A1; GA 25 µM): 6.586±0.083 nmol/min/mg protein
- Lineweaver-Burk Slope (rat CYP3A1; GA 50 µM): 4.916±0.064
- Lineweaver-Burk Y-intercept when X=0.0 (rat CYP3A1; GA 50 µM): 0.137±0.028
- Vmax of nifedipine metabolism (rat CYP3A1; GA 50 µM): 6.473±0.146 nmol/min/mg protein

Source: publication PMC8966664 (Frontiers in Pharmacology, 2022)
